Source: patent US20130345257A1, “COMPOSITION FOR LUPUS NEPHRITIS AND METHODS OF MAKING AND USING THE SAME” (The Regents of the University of California, priority 2012, published 2013)
“Also recorded” adds a separate entry of the source.

Columns and labels:
[1] = system: CD4+ regulatory T cells (CD4+ Foxp3+) in PBMC; experiment: CD4+ Tregs within PBMC of treated mice; format: in vivo, mouse; conditions: LAQ 1 or 25 mg/kg; compared to the other groups
Text: FIG. 7 depicts an exemplary embodiment: A) illustrates gating technique used to identify CD4+ regulatory T cells (CD4+ Tregs), which are shown as the dotted cloud inside the box insert and also labeled as CD4+ Foxp3+.

[2] = system: monocyte/macrophages (CD11b^+Ly6C^−Ly6G^−) and CD4^+ T cells; experiment: Intracellular cytokines in splenocytes of treated mice after TLR agonist or PMA plus ionomycin stimulation; format: cell-based, mouse; conditions: vs vehicle
Method: For intracellular cytokines, whole splenocytes were stimulated with a) LPS (1 μg/mL) (Sigma), imiquimod, a toll like receptor 7 (TLR7) agonist, or ODN, a TLR9 agonist (both at 10 μg/mL) in 2% FBS RPMI 1640 for 24 hours in the presence of monensin (BioLegend) for the last 12 hours; or b) phorbol 12-myristate 13-acetate (PMA, 50 ng/ml) plus ionomycin (500 ng/ml) in the presence of monensin for 5 hours. Monensin was used to prevent cytokine secretion and optimize intracellular staining Intracellular expression of cytokines in CD4^+ cells and macrophages (CD11b^+Ly6C^−Ly6G^−) was analyzed by intracellular flow cytometry. Single-cell suspensions from spleen or kidneys were stained for extracellular markers for 20 min at 4° C. in PBS/1% FBS. Intracellular staining for Foxp3 and cytokines was performed using the Foxp3 Fixation/Permeabilization kit according to the manufacturer's protocol (eBioscience). Cells were acquired on a FACS LSR II (BD) and data was analyzed using Flowjo (Tree Star).

[3] = system: patients; conditions: dose of 2 g daily; dose-dependent; cited from earlier work

Compound | Percentage of CD4+ Tregs within PBMC [1] | IL-10^+ M/M ([2]; splenic M/M after TLR agonist stimulation, PU^lo animals, 7 weeks of treatment) | M/M producing TNF-α ([2]; splenic M/M after TLR agonist stimulation, listed as laquinimod) | CD4^+ T cells producing IFN-γ ([2]; splenocytes, PMA plus ionomycin) | Patients with gastrointestinal side effects [3]
CCN(C(=O)c1c(O)c2c(Cl)cccc2n(C)c1=O)c1ccccc1 [LAQ, 5-chloro-N-ethyl-4-hydroxy-1-methyl-2-oxo-N-phenyl-1,2-dihydroquinoline-3-carboxamide] | significantly higher percent | Significantly more | unable to respond; also recorded: significantly fewer | significantly fewer | 
COc1c(C)c2c(c(O)c1C/C=C(\C)CCC(=O)OCCN1CCOCC1)C(=O)OC2 [MMF, mycophenolate mofetil, reference compound] |  |  |  |  | up to 20%
